Where two headings read alike, the source gives them in different places.
How the values were obtained:
[1] = target: USP30^ch3 I154A (Homo sapiens, UniProt Q70CQ3, I154A, form not given); assay: Ub–RhoG cleavage enzyme inhibition assay, chimera 3 I154A; type: biochemical; conditions: mean n=3
Description: (§1) Enzyme kinetics were performed in black, low-volume, non-binding-surface 384-well plates. […] Next, 10 µl of 2× enzyme solution was added in triplicate to the plate. The reaction was started by adding 10 µl of 2× substrate solution. […] Inhibitor solution (4×) was added to 4× enzyme solution to create a 2× enzyme–inhibitor mixture. Next, 10 µl of this 2× enzyme–inhibitor mixture was then added to the plate in triplicate, and the plate was incubated at room temperature for 90 min. The reaction was started by adding 10 µl of 2× Ub–RhoG substrate. […] Data were analyzed with GraphPad Prism.

[2] = test system: recombinant USP30; conditions: read-out: Ub–Rho IC50 against recombinant USP30; cited from earlier work
[3] = target: USP30^ch2 (Homo sapiens, UniProt Q70CQ3); assay: Ub–RhoG cleavage enzyme inhibition assay, chimera 2; type: biochemical; design: scale not given here; conditions: mean n=3
Sequence of USP30^ch2 (Q70CQ3 64-502): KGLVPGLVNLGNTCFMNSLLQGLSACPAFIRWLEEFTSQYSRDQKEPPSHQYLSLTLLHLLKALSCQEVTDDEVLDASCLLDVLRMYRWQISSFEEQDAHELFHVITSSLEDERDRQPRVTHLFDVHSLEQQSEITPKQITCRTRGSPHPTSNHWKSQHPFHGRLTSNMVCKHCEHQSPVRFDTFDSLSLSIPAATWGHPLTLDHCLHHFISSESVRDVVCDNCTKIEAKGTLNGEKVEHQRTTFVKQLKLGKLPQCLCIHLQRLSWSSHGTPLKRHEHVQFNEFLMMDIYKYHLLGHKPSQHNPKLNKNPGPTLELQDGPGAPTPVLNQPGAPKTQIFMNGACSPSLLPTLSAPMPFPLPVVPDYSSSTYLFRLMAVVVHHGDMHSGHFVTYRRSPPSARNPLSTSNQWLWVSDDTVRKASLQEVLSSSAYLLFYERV
Sequence of USP30^ch2 (P54578 248-318 partner): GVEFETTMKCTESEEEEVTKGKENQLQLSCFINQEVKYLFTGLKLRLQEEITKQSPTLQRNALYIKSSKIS
Description: as §1

[4] = test system: USP30; conditions: read-out: Cellular ABPP IC50 / cellular target engagement, cited from earlier work
[5] = test system: other DUBs; conditions: at 100 µM; cited from earlier work
[6] = target: USP30^ch3 (Homo sapiens, UniProt Q70CQ3); assay: Ub–RhoG cleavage enzyme inhibition assay, chimera 3 (WT); type: biochemical; conditions: mean n=3
Sequence of USP30^ch3 (Q70CQ3 64-502): as the sequence (Q70CQ3 64-502) above
Sequence of USP30^ch3 (P54578 248-318 partner): as the sequence (P54578 248-318 partner) above
Sequence of USP30^ch3 (Q9P2H5 821-846 partner): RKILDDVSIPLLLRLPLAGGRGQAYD
Description: as §1

[7] = test system: USP30 constructs (construct 1, chimeras 1–3); assay: Ub–RhoG cleavage enzyme inhibition assay, statements across constructs; type: biochemical, human; conditions: addition of hydroxyl group at the tert-butyl group
Description: Enzyme kinetics were performed in black, low-volume, non-binding-surface 384-well plates. For activity assays, 2× Ub–RhoG substrate (final concentration, 50 nM) and 2× enzyme (final concentration, 0.25–32 nM) were prepared in 20 mM HEPES, pH 8.0, 50 mM NaCl, 5 mM DTT, 0.1 mg ml^−1 BSA. Next, 10 µl of 2× enzyme solution was added in triplicate to the plate. The reaction was started by adding 10 µl of 2× substrate solution. For enzyme inhibition assays, 2× substrate (final concentration, 100 nM), 4× enzyme (final concentration, 0.1 nM) and 4× inhibitor (final concentration, 1.6 pM–1.6 μM) were prepared in 50 mM Tris-HCl, pH 8.0, 0.05 mg ml^−1 BSA, 4 mM DTT, 0.01% Tween-20. Inhibitor solution (4×) was added to 4× enzyme solution to create a 2× enzyme–inhibitor mixture. Next, 10 µl of this 2× enzyme–inhibitor mixture was then added to the plate in triplicate, and the plate was incubated at room temperature for 90 min. The reaction was started by adding 10 µl of 2× Ub–RhoG substrate. Substrate cleavage was monitored by measurement of cleaved RhoG fluorescence (excitation, 492 nm; emission, 525 nm) every 30 s for 1 h at 25 °C on a Tecan Spark plate reader. Data were analyzed with GraphPad Prism.

Sequence of USP30^ch3 I154A (Q70CQ3 64-502 I154A, form open): as the sequence (Q70CQ3 64-502) above, with I91A counted along it
Sequence of USP30^ch3 I154A (P54578 248-318 partner, form open): as the sequence (P54578 248-318 partner) above

## CC(C)(C)NS(=O)(=O)c1ccc(NC(=O)[C@H](Cc2ccccc2)NC(=O)c2ccc(F)cc2)cc1 [compound 39]
[1]; inhibitor 0.001563 nM
  USP30ch3 I154A activity: 1.024
[1]; inhibitor 0.00625 nM
  USP30ch3 I154A activity: 1.056
[1]; inhibitor 0.025 nM
  USP30ch3 I154A activity: 0.9999
[1]; inhibitor 0.1 nM
  USP30ch3 I154A activity: 1.007
[1]; inhibitor 0.39 nM
  USP30ch3 I154A activity: 0.9637
[1]; inhibitor 1.56 nM
  USP30ch3 I154A activity: 0.9166
[1]; inhibitor 6.25 nM
  USP30ch3 I154A activity: 0.8225
[1]; inhibitor 25 nM
  USP30ch3 I154A activity: 0.6606
[1]; inhibitor 100 nM
  USP30ch3 I154A activity: 0.4173
[1]; inhibitor 400 nM
  USP30ch3 I154A activity: 0.274
[1]; inhibitor 1600 nM
  USP30ch3 I154A activity: 0.2192
[2]
  IC50: 2 to 20 nM
[3]; inhibitor 0.0015625 nM
  USP30ch2 activity: 0.9681
[3]; inhibitor 0.00625 nM
  USP30ch2 activity: 1.022
[3]; inhibitor 0.025 nM
  USP30ch2 activity: 0.8647
[3]; inhibitor 0.1 nM
  USP30ch2 activity: 0.7206
[3]; inhibitor 0.39 nM
  USP30ch2 activity: 0.5237
[3]; inhibitor 1.56 nM
  USP30ch2 activity: 0.3579
[3]; inhibitor 6.25 nM
  USP30ch2 activity: 0.1977
[3]; inhibitor 25 nM
  USP30ch2 activity: 0.0871
[3]; inhibitor 100 nM
  USP30ch2 activity: 0.04077
[3]; inhibitor 400 nM
  USP30ch2 activity: 0.01798
[3]; inhibitor 1600 nM
  USP30ch2 activity: 0.005204
[4]; listed as Compound 39
  IC50: < 50 nM
[4]
  IC50: 10 to 50 nM
[5]
  inhibition of other DUBs in a panel of recombinant enzymes: no other DUB being inhibited
[6]; inhibitor 0.001563 nM
  USP30ch3 WT activity (Fig. 5d / ED Fig. 7e series): 0.9251
[6]; inhibitor 0.00625 nM
  USP30ch3 WT activity (Fig. 5d / ED Fig. 7e series): 0.867
  USP30ch3 activity: 0.8546
[6]; inhibitor 0.025 nM
  USP30ch3 WT activity (Fig. 5d / ED Fig. 7e series): 0.8429
  USP30ch3 activity: 0.7063
[6]; inhibitor 0.1 nM
  USP30ch3 WT activity (Fig. 5d / ED Fig. 7e series): 0.705
  USP30ch3 activity: 0.6531
[6]; inhibitor 0.39 nM
  USP30ch3 WT activity (Fig. 5d / ED Fig. 7e series): 0.5733
  USP30ch3 activity: 0.4658
[6]; inhibitor 1.56 nM
  USP30ch3 WT activity (Fig. 5d / ED Fig. 7e series): 0.4495
  USP30ch3 activity: 0.3269
[6]; inhibitor 6.25 nM
  USP30ch3 WT activity (Fig. 5d / ED Fig. 7e series): 0.2804
  USP30ch3 activity: 0.1958
[6]; inhibitor 25 nM
  USP30ch3 WT activity (Fig. 5d / ED Fig. 7e series): 0.1378
  USP30ch3 activity: 0.09897
[6]; inhibitor 100 nM
  USP30ch3 WT activity (Fig. 5d / ED Fig. 7e series): 0.05989
  USP30ch3 activity: 0.03567
[6]; inhibitor 400 nM
  USP30ch3 WT activity (Fig. 5d / ED Fig. 7e series): 0.03092
  USP30ch3 activity: 0.008529
[6]; inhibitor 1600 nM
  USP30ch3 WT activity (Fig. 5d / ED Fig. 7e series): 0.02661
  USP30ch3 activity: -0.001344
[6]; inhibitor 0.0015625 (0.001563) nM
  USP30ch3 activity: 0.9081

## CC(C)(CO)NS(=O)(=O)c1ccc(NC(=O)[C@H](Cc2ccccc2)NC(=O)c2ccc(F)cc2)cc1 [NK036]
[7]
  decrease in potency relative to compound 39: about one order of magnitude
